The text below walks through data of patent publication US20220193270A1, “METHOD FOR ENHANCING TUMOR GROWTH” (MINERVA BIOTECHNOLOGIES CORPORATION, priority 2013, published 2022).

The subject of experiment [1] is Human HES-3 embryonic stem cells. The experiment can be described thus: Human embryonic stem cell culture with NME protein as only growth factor. The format is cell-based. The conditions noted are these: serum-free minimal base media, agent as the only growth factor or cytokine. The text has this: Factors that are able to maintain stem cells in the naive state are also able to transform cells to a cancer-like or stem-like state and are also able to transform cancer cells to a cancer stem cell state or a more metastatic state. Herein, we have shown several examples of bacterial NME1 being able to function like human NME1 dimers, which are also able to function like NME7 or NME7-AB. However, the primary example that these factors function in a very similar way is their ability to promote the growth of stem cells, inhibit differentiation and maintain them in the naive state. […] Human HES-3 embryonic stem cells were cultured in a serum-free minimal base media with either HSP 593, human NME1 or NME7-dimers or human NME7-AB as the only growth factor or cytokine. […] Several examples have been presented here that indicate that contacting cells with an agent or agents that are able to revert stem cells from the primed state to the less mature naive state are also able to revert a wide variety of cell types to a less mature state: somatic cells to stem or progenitor cells or cancer cells to more metastatic state also called cancer stem cell state. Therefore, the invention is not meant to be limited to a specific cell type or a specific cancer cell type.

Experiment [2] relates to PC3 MUC1-negative prostate cancer cells. As to the kind of experiment: RT-PCR of stem cell markers in PC3 cells cultured with agent. The experiment is classed as cell-based, human. The protocol: (§1) Example 3: Agents that are able to maintain stem cells in the naïve state transform cancer cells into cancer stem cells wherein only a small number of cells are required for engraftment. Cancer cells were cultured according to standard practice. In the controls, the cancer cells were cultured in their normal media: RPMI for T47D breast cancer cells, DU145 and PC3 prostate cancer cells. However, the test agents, recombinant proteins human NME1 dimers, bacterial HSP593 NME1 dimers, human NME7-AB and 2i, were added to a serum-free minimal media to eliminate potential interference from the many growth factors and cytokines in serum.
(§2) To this serum-free minimal media, rhNME1 (aka NM23) was added to a final concentration of 8 nM, or bacterial HSP593 recombinant NME1 was added to a final concentration of 8 nM, or rhNME7-AB was added to a final concentration of 4 nM, or 2i inhibitors, PD0325901 and CHIR99021, which inhibit the MAP kinase pathway and GSK3, respectively, were added to a final concentration of 3 μM and 1 μM.
PC3 MUCl-negative prostate cancer cells were also tested for their ability to transform into cancer stem cells when cultured in agents that are able to maintain stem cells in the naïve state. PC3 cells were cultured as described above with either human NME1 dimers, bacterial NME1 dimers or NME7-AB. […] Thus, the RT-PCR measurements of the cancer stem cell markers may be lower because measurements will be the average of transformed cells and non-transformed cells.

Experiment [3] has as its system DU145 MUC1-positive prostate cancer cells. The experiment can be described thus: RT-PCR of cancer stem cell markers in DU145 cells cultured with agent. The following applies: after 9-10 passages; FIG. 11b. The format is cell-based, human. The protocol: as §1, §2
Example 3b: Prostate cancer cells were also cultured as described above with either human NME1 dimers, bacterial NME1 dimers, NME7-AB, or 2i inhibitors. […] Thus, the RT-PCR measurements of the cancer stem cell markers are lower than that of the T47D cells, which could be explained by it being the measure of transformed cells and non-transformed cells. In the case of breast cancer cells, we were able to isolate the fully transformed cancer stem cells by collecting the floating cells, but were not able to do so here. DU145 MUC1-positive prostate cancer cells were cultured in RPMI media as a control and in minimal media to which was added recombinant human NME1/NM23 dimers, bacterial HSP593 dimers, or human NME7-AB. […] There was about a 2-8-fold increase in OCT4, MUC1 and CDH1/E-cadherin. However, after serial passaging under these same culture conditions, the increases in expression of cancer stem cell markers became more pronounced. We reasoned that serial passaging allowed more time for cells to transform since we could not rapidly collect floating cells.

The subject of experiment [4] is MUC1-positive T47D breast cancer cells. As to the kind of experiment: RT-PCR of cancer stem cell markers and chromatin rearrangement factors in T47D cells cultured in serum-free minimal media with agent. The experiment is classed as cell-based, human. The protocol: as §1
Serum-free Minimal Media 500 mL includes the following components: 394 mL DMEM/F12, GlutaMAX; 100 mL Knockout™ Serum Replacement; 5.0 mL 100×MEM Non-essential Amino Acid Solution; 0.9 mL P-mercaptoethanol, 55 mM stock.
as §2
When a rho kinase inhibitor, “Ri” or “ROCi”, was added it was Y27632 from Stemgent (Cambridge, Mass.), added immediately before use to a final concentration of 10 uM.
Example 3a: Breast cancer T47D cells were cultured either in the traditional RPMI growth media or in a minimal stem cell media to which was added either human NME1 dimers, also known as NM23-H1, bacterial HSP593 NME1 dimers, human NME7-AB, or kinase inhibitors known as ‘2i’. What these agents have in common is that they are each able to promote the growth of stem cells in the naive state or are able to revert primed state stem cells to the less mature naive state. We observed that some of the T47D cancer cells cultured in any of these agents became non-adherent. These ‘floaters’ were also morphologically different. The addition of a rho kinase inhibitor, called ‘Ri’ or ‘ROCP here caused most of the cells to remain attached to the surface. […] When a rho kinase inhibitor is added, all the cells remain attached but the RT-PCR measurements indicate that the resultant measure is of a mixture of the cells that were transformed and those that were not or were not yet.
Example 3c: In this example, the effect of ‘2i’ inhibitors on cancer cells was tested. Recall that 2i is the name given to 2 small molecules, […] that inhibit the MAP kinase pathway and GSK3 respectively. […] In this experiment, we cultured MUCl-positive T47D breast cancer cells in minimal media to which was added either 2i or NME7-AB.

A further experiment relates to human fibroblasts. The experiment can be described thus: RT-PCR of stem/cancer markers and chromatin rearrangement factors in fibroblasts cultured with NME proteins. The format is cell-based. The conditions noted are these: after 15-20 days in culture. The protocol: Agents that are able to maintain stem cells in the naive state are also able to transform somatic cells to a cancer or stem-like state. Human NME1 dimer or human NME7 are able to make somatic cells revert to a less mature state, expressing stem and cancer cell markers. Bacterial NME from HSP 593 was tested alongside the human homologs to determine if it could mimic their function by being able to revert somatic cells to a cancer-like state. Human fibroblasts were cultured in a serum-free minimal base media with either HSP 593, human NME1 dimers or human NME7-AB as the only growth factor or cytokine. […] Recalling that stem cells and metastatic cancer cells can grow anchorage-independently, we repeated the experiments but this time a rho kinase inhibitor was added to one set of cells to make the cells adhere to the surface. […] Photos of the experiment show the dramatic change in morphology as the fibroblasts revert when cultured in human or bacterial NME, FIGS. 52-59. The relative order of efficiency of reverting somatic cells to a less mature state was NME7>NME1 dimers >NME1 bacterial. […] However, Bacterial NME from HSP 593 apparently up-regulates expression of human NME7 and NME1.
Example 3d: In this example, fibroblast cells were cultured in the presence of recombinant human NME1/NM23 dimers, bacterial HSP593 NME1 dimers or NME7-AB. The fibroblasts were cultured in their normal media as a control, which is for 500 mL, 445 mL DMEM high glucose base media, 5 mL GlutaMAX and 50 mL of fetal bovine serum (FBS). After 15-20 days in culture with either NME1/NM23 dimers, bacterial HSP593 NME1 dimers or NME7-AB, the morphology of the cells completely changed so that they no longer were recognizable as fibroblasts. […] Here, ‘minus ROCi’ refers to cells that became non-adherent and floated off the surface.

Consider “NME1 dimers: recombinant human NM23, also called NME1, dimers that bear the 5120G mutation that stabilizes dimers”, for which the “support of human stem cell growth” value in experiment [1] is listed as “fully supported human stem cell growth”. For the same substance, the “expression of stem cell markers SOX2, OCT4 and NANOG” value in experiment [2] (after passage in agent, FIG. 12a) is reported as “modest increases”. Besides, in experiment [2] (serial passaging in the media, FIG. 12b), the “expression of cancer stem cell or stem cell markers” value is given as “decreased”. In addition, in experiment [3], the “expression of NANOG and OCT4” value is “significant increases”; the “increase in the expression of CDH1/E-cadherin” value was 6 fold. In experiment [4] (FIG. 7), the “expression of CDH1 (E-cadherin), MUC1 and NANOG” value is reported as “increases”; the “expression of CXCR4, SOX2 and OCT4” value was “dramatic increases”; the “expression of stem cell markers KLF2 and KLF4” value was “modest increases”. The “expression of MBD3, CHD4, BRD4 and JMJD6” value in experiment [4] (cancer cells cultured in agent, FIG. 13, FIG. 14) was “naturally suppressed”. In addition, in the experiment on human fibroblasts (FIG. 15), the “expression of stem cell marker genes OCT4 and NANOG” value was “greatly increased expression”. The “expression of BRD4, JMJD6, MBD3 and CHD4” value in the experiment with human fibroblasts (FIG. 16) was “decreased expression”.
